“Also recorded” adds a separate entry of the source. Where two headings read alike, the source gives them in different places.
What was measured:
S. aureus USA300 = assay: MIC assay, S. aureus USA300; assay type: cell-based, Staphylococcus aureus; conditions: for MIC S. aureus USA300: Table 7
Procedure: (§1) Bacterial growth conditions. LB or Mueller Hinton II cation-adjusted broth (MHB II, BBL 212322) was prepared according to manufacturer's instructions and supplemented with arabinose at 0.02% for overnight growth or at indicated concentrations in the description of the figures. Bacterial cultures were grown at 37° C. When appropriate, media was supplemented with kanamycin (50 μg/mL), carbenicillin (50 μg/mL), chloramphenicol (12.5 or 25 μg/mL), hygromycin (200 μg/mL), and/or gentamicin (10 μg/mL).
(§2) Peptide sensitivity and MIC assays. Lyophilized peptides (Smartox Biotechnology, CPC Scientific. ABclonal) were solubilized to 10 mM in Tris buffer, pH 8, prior to making a 2-fold dilution series in MHBII cation adjusted broth with highest final assay concentration of 400-800 μM. Bacteria were grown to log phase and added to final OD600˜0.001. The final EDTA concentration was 0.5 mM for E. coli strains and 0.125 mM for USA300. The final volume of 10 μL/well in a 384 well black, clear bottom plate (Corning) was spun <1 min at <250×g and then incubated at 37° C. After 4 h, an equal volume (10 μL) of BacTiter-Glo™ (Promega) was added to each well and luminescence was read after 5 min on an EnVision plate reader (PerkinElmer). To measure the minimal inhibitory concentrations (MICs), bacteria from fresh overnight plates or log phase cultures were diluted with or without EDTA and peptides as described above to final OD600˜0.0002. Plates were incubated at 37° C. for 20 h before measuring OD600 with an EnVision plate reader.

E. coli ΔwaaD = assay: MIC assay, E. coli ΔwaaD; assay type: cell-based, Escherichia coli; conditions: for MIC E. coli ΔwaaD + EDTA: Table 7
Procedure: as §1, §2

E. coli BW25113 = assay type: cell-based, Escherichia coli; conditions: for MIC E coli BW25113 + EDTA / MIC E. coli BW25113: Table 7; for MIC: Table 2
Procedure, shortened: (§3)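 For MIC, bacteria (final OD600 ~0.0002) were incubated with 2-fold peptide dilutions (top 400–800 μM) in cation-adjusted MHB II with or without EDTA, 20 h at 37 °C, read by OD600. EDTA was 0.5 mM for E. coli and 0.125 mM for USA300. The growth-inhibition assay used log-phase cells at OD600 ~0.001, 4 h at 37 °C, BacTiter-Glo luminescence.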

E. coli imp4213 [1] = assay: MIC assay, E. coli imp4213; assay type: cell-based, Escherichia coli; conditions: for MIC E. coli imp4213: Table 7
Procedure: as §1, §2

E. coli ΔwaaD MCR-1 = assay: MIC assay, E. coli ΔwaaD MCR-1; assay type: cell-based, Escherichia coli
Procedure: as §1, §2

E. coli ΔwaaD + vect. = assay: MIC assay, E. coli ΔwaaD + vect.; assay type: cell-based, Escherichia coli; conditions: Table 7
Procedure: as §1, §2

E. coli ΔwaaD pmrB^D149Y = assay: MIC assay, E. coli ΔwaaD pmrB^D149Y; assay type: cell-based, Escherichia coli; conditions: Table 4; + EDTA; PMX-resistant
Procedure: as §1
as §2, with “To measure the minimal inhibitory concentrations (MICs), bacteria from fresh overnight plates or log phase cultures were diluted with or without EDTA and peptides as described above to final OD600˜0.0002.” left out

wild-type E. coli strain = assay: Bacterial growth inhibition, wild-type E. coli strain; assay type: cell-based, Escherichia coli
Procedure: as §1
as §2, with “To measure the minimal inhibitory concentrations (MICs), bacteria from fresh overnight plates or log phase cultures were diluted with or without EDTA and peptides as described above to final OD600˜0.0002.” left out

E. coli + FhuAΔC/Δ4L = assay type: cell-based, Escherichia coli; conditions: Table 2; no EDTA
Excerpt: pFhuAΔC/Δ4L was constructed by synthesizing the fhuA coding sequence lacking the N-terminal cork domain, Δ1-160, and extracellular loops L3, L4, L5, and L11 (Mohammad, et al., J Biol Chem 286, 8000-8013, (2011)).fhuAΔcΔ4L was amplified with primers N3P-105 (encoding the bla constitutive promoter, ribosome binding site, and AUG start codon from pUC19 (New England BioLabs) and N3P-107, and cloning into pACYC184 with BamHI and HindIII (New England BioLabs).
as §1
Peptide sensitivity and MIC assays. […] After 4 h, an equal volume (10 μL) of BacTiter-Glo™ (Promega) was added to each well and luminescence was read after 5 min on an EnVision plate reader (PerkinElmer). […] Plates were incubated at 37° C. for 20 h before measuring OD600 with an EnVision plate reader.

P. aeruginosa = assay type: cell-based, Pseudomonas aeruginosa; conditions: Table 3; + EDTA (2 mM)
Procedure, shortened: as §3

[2] = Biolayer interferometry: captured biotinylated LAB peptides binding to LPS (KDO2-lipid A); conditions: for Kd: LPS (KDO2-lipid A), biotinylated peptide on SA biosensor, 25° C., estimated from equilibrium responses; for selective binding to LPS over PLs: versus the major PLs found in E. coli; for binding to LPS: interferometry, above background
Procedure: (§4) Biolayer interferometry. Phospholipid (Avanti polar lipids) and KDO2-lipid A (US Biological Life Sciences) stock solutions were prepared by resuspension into 25 mM Tris pH 8, 100 mM NaCl, 0.05% LMNG buffer and solubilized overnight at 4° C. Lipid stocks were diluted prior to experiments into 25 mM Tris pH 8, 100 mM NaCl, 0.5 mg/mL BSA, 0.05% LMNG. All assays were performed at 25° C. in 25 mM Tris pH 8, 100 mM NaCl, 0.5 mg/mL BSA, 0.05% LMNG. Biotinylated-LAB peptides were loaded onto SA biosensors to a response of approximately 0.5 nm. Binding to phospholipids and KDO2-lipid A was measured at concentrations of 150, 100, 50, 25, and 10 μM with 300s association and dissociation steps. Assays were performed in triplicate on an Octet Red384 (ForteBio) and buffer and lipid signals were subtracted by using a biotin-blocked reference streptavidin (SA) biosensor. Dissociation constants for LABWT and LABWT+, interactions with KDO2-lipidA were estimated by plotting response values at equilibrium as a function of concentration and fit to a global specific binding with Hill slope model in Prism (Graphpad Software).
Based on the intriguing chemical characteristics of the LPS-PbgA interface, the possibility that a linear peptide derived from PbgA might selectively bind to LPS in vitro was considered. A peptide encompassing the lipid A-binding (LAB)-motif (209SYPMTARRFLEKHGLLD225; SEQ ID NO: 67) with an additional Gly-Ser-linker and biotin modification was generated and used in an interferometry-based assay. […] Two peptides intended to destabilize essential lipid A binding determinants were tested as controls.

E. cloacae = assay: MIC assay, E. cloacae; assay type: cell-based, Enterobacter cloacae; conditions: Table 3; + EDTA (2 mM)
Procedure: as §1
as §2, with “To measure the minimal inhibitory concentrations (MICs), bacteria from fresh overnight plates or log phase cultures were diluted with or without EDTA and peptides as described above to final OD600˜0.0002.” left out

K. pneumoniae = assay type: cell-based, Klebsiella pneumoniae; conditions: Table 3; + EDTA (2 mM)
Procedure, shortened: as §3

A. baumannii = assay type: cell-based, Acinetobacter baumannii; conditions: Table 3, + EDTA (2 mM)
Procedure, shortened: as §3

[3] = Biolayer interferometry: captured biotinylated LAB peptides binding to phospholipids; design: species or system E. coli; conditions: above background
Procedure: as §4
Based on the intriguing chemical characteristics of the LPS-PbgA interface, the possibility that a linear peptide derived from PbgA might selectively bind to LPS in vitro was considered. […]

E. coli = assay: Cell growth inhibition assay with or without EDTA; assay type: cell-based, Escherichia coli; conditions: irrespective of the presence or absence of EDTA (0.5 mM)
Procedure: as §2
It was reasoned that the relatively large molecular weight (>2 kDa) and limited α-helical propensity of the linear LABWT peptide (SEQ ID NO: 1) might limit its access to LPS in the bacterial OM. […]

E. coli imp4213 [4] = assay: Bacterial growth inhibition, E. coli imp4213; assay type: cell-based, Escherichia coli
Procedure: as §1
as §2, with “To measure the minimal inhibitory concentrations (MICs), bacteria from fresh overnight plates or log phase cultures were diluted with or without EDTA and peptides as described above to final OD600˜0.0002.” left out

E. coli+FhuAΔC/Δ4L = assay: Bacterial growth inhibition, E. coli+FhuAΔC/Δ4L; assay type: cell-based, Escherichia coli
Procedure: as §1
as §2, with “To measure the minimal inhibitory concentrations (MICs), bacteria from fresh overnight plates or log phase cultures were diluted with or without EDTA and peptides as described above to final OD600˜0.0002.” left out

E. coli mcr-1 = assay type: cell-based, Escherichia coli; conditions: Table 6
Procedure, shortened: as §3

Substance | MIC S. aureus USA300 (S. aureus USA300) | MIC E. coli ΔwaaD + EDTA (E. coli ΔwaaD; + EDTA) | MIC E coli BW25113 + EDTA (E. coli BW25113) | MIC E. coli BW25113 (E. coli BW25113; no EDTA) | MIC E. coli imp4213 (E. coli imp4213 [1]) | further results
Ac-GSSYPMTARRFLEKHGL-NH2 [compound 8] | >800 µM | 800 µM | 800 µM | >800 µM | 200 µM | 
Ac-GSSYPMTARRFLEKHGLL-NH2 [compound 7] | >800 µM | 400 µM | 400 µM | >800 µM | 200/400 | 
Ac-GSSYPMTARRFLEKHGLLR-NH2 [compound 13] | >800 µM | 200 µM | 800 µM | >800 µM | 200 µM | MIC E coli ΔwaaD − MCR1 (E. coli ΔwaaD MCR-1; Table 7): 200 µM; MIC E. coli ΔwaaD + vect. (E. coli ΔwaaD + vect.): 800 µM
Ac-GSSYPMTARRFLEKWGLLD-NH2 [compound 6] | >800 µM | >800 µM | 800 µM | >800 µM | 400 µM | 
Ac-SSYPMTARRFLEKHGLLD-NH2 [compound 9] | >800 µM | >800 µM | >800 µM | >800 µM | 800 µM | 
Ac-SYPMTARRFLEKWGLLR-NH2 [SEQ ID NO: 68, SYPMTARRFLEKWGLLR] |  |  |  |  |  | MIC (E. coli ΔwaaD pmrB^D149Y): 100 µM; MIC (E. coli ΔwaaD MCR-1; Table 4, + EDTA, PMX-resistant): 100 µM; MIC (S. aureus USA300; Table 2, Gram-positive wild-type strain): >800 µM; growth inhibition (wild-type E. coli strain): failed to inhibit the growth; MIC (E. coli + FhuAΔC/Δ4L): 50 µM; MIC (P. aeruginosa): 400 µM; MIC (E. coli ΔwaaD; Table 2, no EDTA): 400 µM; MIC (E. coli ΔwaaD; Table 4, + EDTA): 100 µM; improved affinity towards LPS ([2]; LABWT+ relative to LABWT): ~1.5 fold; Kd [2]: ~55 µM; selective binding to LPS over PLs [2]: maintaining selectivity over PL binding; MIC (E. cloacae): 100 µM; MIC (K. pneumoniae): >400 µM; MIC (E. coli BW25113; + 0.5 mM EDTA): 200 µM; MIC (E. coli BW25113; wild-type strain, no EDTA): >800 µM; MIC (A. baumannii): 400 µM; MIC (A. baumannii; listed as LABWT+): 200 µM; MIC (E. coli imp4213 [1]; Table 2, no EDTA): 25 µM
Ac-YPMTARRFLEKHGLL-NH2 [compound 11] | >800 µM | 400 µM | 400 µM | >800 µM | 200 µM | 
Ac-YPMTARRFLEKHGLLD-NH2 [compound 10] | >800 µM | >800 µM | 800 µM | >800 µM | 800 µM | 
GSSYPMDARRFLEKHGLLD (Ac-GSSYPMDARRFLEKHGLLD-NH2) [SEQ ID NO: 3] |  |  |  |  |  | binding to PLs [3]: Neither a peptide lacking the α7 helix (LABΔα7; SEQ ID NO: 2) nor a peptide containing the T213D mutation equivalent (LABT213D; SEQ ID NO: 3) showed detectable binding to LPS or PLs above background; effect on bacterial cell growth (E. coli): showed no effect on bacterial cell growth; binding to LPS ([2]; listed as LABT213D): Neither a peptide lacking the α7 helix (LABΔα7; SEQ ID NO: 2) nor a peptide containing the T213D mutation equivalent (LABT213D; SEQ ID NO: 3) showed detectable binding to LPS or PLs above background; also recorded: failed to bind LPS in vitro
GSSYPMTARRFLE (Ac-GSSYPMTARRFLE-NH2) [SEQ ID NO: 2] |  |  |  |  |  | binding to PLs [3]: Neither a peptide lacking the α7 helix (LABΔα7; SEQ ID NO: 2) nor a peptide containing the T213D mutation equivalent (LABT213D; SEQ ID NO: 3) showed detectable binding to LPS or PLs above background; effect on bacterial cell growth (E. coli): showed no effect on bacterial cell growth; binding to LPS ([2]; listed as LABΔα7): Neither a peptide lacking the α7 helix (LABΔα7; SEQ ID NO: 2) nor a peptide containing the T213D mutation equivalent (LABT213D; SEQ ID NO: 3) showed detectable binding to LPS or PLs above background; also recorded: failed to bind LPS in vitro
GSSYPMTARRFLEKHGLLD [SEQ ID NO: 1] |  |  |  |  |  | growth inhibition (wild-type E. coli strain): failed to inhibit the growth; growth inhibition (E. coli imp4213 [4]): significantly impacted the growth; growth inhibition (E. coli+FhuAΔC/Δ4L): significantly impacted the growth; Kd [2]: ~75 µM; selective binding to LPS over PLs [2]: bound LPS selectively over the major PLs
Polymyxin B [reference compound] |  |  |  |  |  | Polymyxin B MIC (E. coli BW25113; Table 6, E. coli K-12 wild-type parent BW25113): 0.2 µM; Polymyxin B MIC (E. coli mcr-1): 12.5 µM

Reference: patent US20220135622A1, “ANTIBACTERIAL PEPTIDES AND METHODS OF USE” (priority 2019, published 2022)
